Patent US11384358B2, “Method of regulating gene expression in a cell” (President and Fellows of Harvard College, priority 2017, dated 2022)

What was measured:
Format in all cases: cell-based
[1] = tested on: TetR regulon paired with slpA-tetO variant 2; assay: aTc induction of fluorescent reporter, TetR regulon (L. plantarum promoter) paired with slpA-tetO variant 2; settings: L. rhamnosus GG; 0.3125-10 ng/mL aTc; early exponential, mid-exponential and stationary phase; FIG. 1
Description: To evaluate the functionality of the aTc induction system described herein in lactic acid bacteria, the TetR regulon described herein is driven by a L. plantarum promoter paired with slpA-tetO variant 2 (current SEQ IDs 1 and 2), into L. rhamnosus GG via electroporation with a high copy plasmid. Sequence verified colonies, as well as colonies harboring a negative control plasmid with no fluorescence reporter, were then picked in triplicate, and used to inoculate liquid cultures that were grown overnight. These overnight cultures were then sub-cultured 1/100 into fresh media, in duplicate—one culture containing 10 ng/mL aTc, the other containing no inducing agent. The culture with inducing agent, was then serially diluted by 50%, 5 times (yielding cultures with 5, 2.5, 1.25, 0.625, and 0.3125 ng/mL of aTc, in addition to the original 10 ng/mL culture). These cultures were then grown to an optical density of 0.2 (to capture lag phase behavior), 0.6 (log phase), and 1.0 (stationary phase), as measured by an optical cell density meter. At each optical density, the fluorescence of all cultures and replicates were measured in absolute units in a fluorimeter. Relative fluorescence units were then computed as a fold change value over the measured fluorescence of the negative control cell cultures that were known to not express fluorescence protein.

[2] = tested on: aTc-inducible expression cassette encoding J3-VHH secretion; assay: aTc-induced secretion of HisTagged J3-VHH nanobody, protein gel of purified culture supernatant; settings: L. gasseri with inducible cassette (SEQ ID NO: 2); 500 ng/mL aTc added at optical density 0.4; FIG. 17
Text: According to one aspect, an inducible expression system is used prevent expression during bacterial culture and clone isolation. According to one aspect, expression is controlled and kept off during bacterial culture and clone isolation to avoid or lower or reduce or inhibit secretion-induced toxicity. According to one aspect, the level of a HisTagged, anti-HIV (gp120) camelid nanobody (J3-VHH) purified from culture supernatant, when secretion of protein was driven by an inducible system (SEQ ID NO: 2) was compared to a system using an uncontrolled, constitutive slpA. Cells (in this case, L. gasseri) without an expression cassette (negative control with no protein expected), an aTc-inducible expression cassette encoding J3-VHH secretion, and an equivalent, but constitutive expression cassette, were grown in culture to an optical density of 0.4 (the start of the exponential growth phase, during which time cellular protein production capacity is maximal), and split into two equal volumes—500 ng/mL of aTc was added to one, while the other received no aTc (as an internal negative control to verify functional induction).

L. jensenii = assay: susceptibility of Lactobacillus strains to tetracycline (growth inhibition)
Description: (§1) An expression system that is inducible by tetracycline in Lactobacilli is described as follows. […] A BLAST analysis of the TetR protein sequence as well as the TetA tetracycline efflux pump that drives resistance was performed, across all available Lactobacillus proteomes and potential homologs in L. lactis, and L. plantarum were identified, because they carry a transferrable plasmid harboring tetM and tetS genes.

L. rhamnosus GG [3] = assay: as above
Description: as §1

L. gasseri = assay: as above
L. crispatus = assay: as above
L. rhamnosus GG [4] = assay: promoter variants driving fluorescent reporter in plasmid with no TetR, L. rhamnosus GG
Description: FIG. 11 depicts minimum free energy mRNA structural folding predictions. Each of these variants was then tested in a plasmid with no TetR (meaning the inserted promoters are not repressed, and should be constitutively active), driving a fluorescent reporter. […] Subsequently, this test was replicated in L. rhamnosus GG. […] Therefore, only variant 2 was selected for testing in the presence of TetR. […] See McCracken et al. J Bacteriol 181(20):6569-6572 (1999).

[5] = relative expression strength of promoters by fluorescence (FIG. 12)
[6] = tested on: TetR regulon paired with slpA-tetO variant 2; assay: aTc induction of fluorescent reporter in L. gasseri; settings: similar experimental conditions, FIG. 15
L. rhamnosus GG [7] = assay: leakage and induction of aTc-inducible slpA promoter variant (FIG. 16)
Text: An exemplary aTc-inducible slpA promoter variant is provided in SEQ ID NO:15 which includes the alterations above resulting in a combined, maximally repressive variant. In one embodiment, a promoter sequence has at least 85% homology, at least 90% homology, at least 95% homology, at least 97% homology, at least 98% homology or at least 99% homology to SEQ ID NO:15. All of the described alterations work in concert to achieve an inducible system that has essentially undetectable levels of leakage in all phases of growth.

For Cc1c2c(c(O)c3c(O)cccc13)C(=O)[C@]1(O)C(O)=C(C(N)=O)C(=O)[C@@H](N(C)C)[C@@H]1C2 [aTc, anhydrous tetracycline], the “repression and expression of a fluorescent protein in the absence and presence of aTc” value [1] was “reliable repression and expression of a fluorescent protein” and the “secretion of J3-VHH protein into the supernatant” value [2] was “secreted any protein into the supernatant”.

With CN(C)[C@@H]1C(O)=C(C(N)=O)C(=O)[C@@]2(O)C(O)=C3C(=O)c4c(O)cccc4[C@@](C)(O)[C@H]3C[C@@H]12 [tetracycline] the “tetracycline concentration at which growth is inhibited” value (L. jensenii) was ≤ 2 mg/mL, the “tetracycline concentration at which growth is inhibited” value (L. rhamnosus GG [3]) was ≤ 2 mg/mL and the “tetracycline concentration at which growth is inhibited” value (L. gasseri) was ≤ 2 mg/mL. For the same molecule, the “tetracycline concentration at which growth is inhibited” value (L. crispatus) was ≤ 2 mg/mL.

B1: Variant 2: slpA promoter with two tetO boxes after the transcriptional start site (nucleic acid)
DNA: TGCTTGTGGGGGTAAGCGGTAGGTGAAATATTACAAATAGTATTTTTCGGTCATTTTAACTTGCTATTTCTTGAAGAGGTTAGTACAATATGAATCGTGGCCCTATCAGTGATAGAGATCAGGCGCCCTATCAGTGATAGAGATGATTCTTCAGCAAGACTACTACCTCATGAGAGTTATAGACTCATGGATCTTGCTTTGAAGGGTTTTGTACATTATAGGCTCCTATCACATGCTGAACCTATGGCCTATTACATTTTTTTATATTTCAAGGAGGAAAAGACCAC
In the case of B1, the “expression versus wild-type promoter” value (L. rhamnosus GG [4]) is reported as 3 fold-less than the wild-type promoter.

B2: promoter for the ribosomal RNA 3-a from L. plantarum: L. plantarum ribosomal RNA promoter 3-a, used to drive TetR (SEQ ID NO: 1) (nucleic acid)
DNA: TTATAAAAAGATGTTGACAGCTTGTTCTGATGATGATAAACTTTAATAGTTGCGAGAGAAAGAGGAGAAATACTAGATGATGTCTAGATTAGATAAAAGTAAAGTGATTAACAGCGCATTAGAGCTGCTTAATGAGGTCGGAATCGAAGGTTTAACAACCCGTAAACTCGCCCAGAAGCTAGGTGTAGAGCAGCCTACATTGTATTGGCATGTAAAAAATAAGCGGGCTTTGCTCGACGCCTTAGCCATTGAGATGTTAGATAGGCACCATACTCACTTTTGCCCTTTAGAAGGGGAAAGCTGGCAAGATTTTTTACGTAATAACGCTAAAAGTTTTAGATGTGCTTTACTAAGTCATCGCGATGGAGCAAAAGTACATTTAGGTACACGGCCTACAGAAAAACAGTATGAAACTCTCGAAAATCAATTAGCCTTTTTATGCCAACAAGGTTTTTCACTAGAGAATGCATTATATGCACTCAGCGCTGTGGGGCATTTTACTTTAGGTTGCGTATTGGAAGATCAAGAGCATCAAGTCGCTAAAGAAGAAAGGGAAACACCTACTACTGATAGTATGCCGCCATTATTACGACAAGCTATCGAATTATTTGATCACCAAGGTGCAGAGCCAGCCTTCTTATTCGGCCTTGAATTGATCATATGCGGATTAGAAAAACAACTTAAATGTGAAAGTGGGTCTTAA
In the case of B2, the “expression strength relative to slpA” value [5] is reported as 5 fold weaker than that of slpA.

B3: TetR-ClpC-slpA: hybrid regulon: L. fermentum BR11 ClpC promoter fused to slpA 5' untranslated region driving TetR (nucleic acid)
DNA: CTTAAAATATAGTCATAGAATTAGGGCGTCGGTTTTAAAAGTGTGGTAAAATAATGGTCAAGATTAGTGGTAAGTAATAGGACGTGCTTCAGGCGTGTTGCCTGTACGCATGCTGATTCTTCAGCAAGACTACTACCTCATGAGAGTTATAGACTCATGGTATAGGCTCCTATCACATGCTGAACCTATGGCCTATTACATTTTTTTATATTTCAAGGAGGAAAAGACCACATGATGTCACGCTTGGATAAATCAAAAGTTATTAATTCAGCATTGGAATTGTTGAATGAAGTTGGCATTGAAGGCTTGACCACCCGCAAATTGGCACAAAAATTGGGCGTTGAACAACCAACCTTGTATTGGCATGTTAAAAATAAACGCGCATTGTTGGATGCATTGGCAATTGAAATGTTGGATCGCCATCATACCCATTTTTGCCCATTGGAAGGCGAATCATGGCAAGATTTTTTGCGCAATAATGCAAAATCATTTCGCTGCGCATTGTTGTCACATCGCGATGGCGCAAAAGTTCATTTGGGCACCCGCCCAACCGAAAAACAATATGAAACCTTGGAAAATCAATTGGCATTTTTGTGCCAACAAGGCTTTTCATTGGAAAATGCATTGTATGCATTGTCAGCAGTTGGCCATTTTACCTTGGGCTGCGTTTTGGAAGATCAAGAACATCAAGTTGCAAAAGAAGAACGCGAAACCCCAACCACCGATTCAATGCCACCATTGTTGCGCCAAGCAATTGAATTGTTTGATCATCAAGGCGCAGAACCAGCATTTTTGTTTGGCTTGGAATTGATTATTTGCGGCTTGGAAAAACAATTGAAATGCGAATCAGGCTCATAA
In the case of B3, the “function of hybrid promoter driving TetR” value [6] is reported as “functional”.

B4: SEQ ID NO:15: aTc-inducible slpA promoter variant combining all alterations, maximally repressive (nucleic acid)
DNA: TGCTTGTGGGGGTAAGCGGTAGGTGAAATATTACAAATAGTATTTTTCGGTCATTTTAACTTGCTATTTCTTGAAGAGGTTAGTACAATATGAATCGTGGTCCCTATCAGTGATAGAGATTGACATCCCTATCAGTGATAGAGATATTCTTCAGCAAGACTACTACCTCATGAGAGTTATAGACTCATGGATCTTGCTTTGAAGGGTTTTGTACATTATAGGCTCCTATCACATGCTGAACCTATGGCCTATTACATTTTTTTATATTTCAAGGAGGAAAAGACCAC
With B4 the “reduction in maximum inducible expression” value (L. rhamnosus GG [7]; FIG. 16) was ~10 × and the “basal expression in the absence of aTc” value (L. rhamnosus GG [7]; stationary phase for 0, 2.5, 7.5 and 17.5 hours) was “no basal expression was detected”.
